Measurements taken from the METLIN SMRT retention time set (Domingo-Almenara et al. 2019).

Experiment: gradient 5% acetonitrile 3 min, to 50% in 2 min, to 85% in 15 min, held 3 min, 100 µL/min
Details: column: Zorbax Extend-C18 2.1 x 50 mm; eluents: water / acetonitrile, 0.1% formic acid
Summary of the method: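 Retention times of pure standards were taken from adduct peaks that were selected by computer and manually inspected. Over 3 months, mixtures of ~100 molecules were run by HPLC–quadrupole time-of-flight mass spectrometry in positive and negative ionization mode. The Zorbax Extend-C18 column (2.1 × 50 mm, 1.8 μm) ran at 100 μL/min in water and acetonitrile, each containing 0.1% formic acid, with 40 μL dead volume and 900 μL dwell volume.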

SMILES | RP-LC retention time
Cn1nccc1-c1cccc(-c2noc(Cc3ccc(Cl)cc3)n2)c1 | 1130 s
CC(C)CN(CC(C)C)C(=O)C1CCN(S(=O)(=O)c2cccc3nsnc23)CC1 | 1040 s
Cc1ccccc1Nc1c(-c2ccc(N3CCOCC3)cc2)nc2ccccn12 | 712 s
O=C1CCCN1CCCN1C(=O)[C@H]2CN(Cc3cccc(OC(F)(F)F)c3)C[C@H]2C1=O | 678 s
CCCn1cc(C(=O)Nc2ccc3c(c2)OCCO3)c2cccnc21 | 833 s
N#Cc1ccc(S(=O)(=O)N2CCCN(S(=O)(=O)c3ccccc3)CCC(=O)NCC2)cc1 | 797 s
COc1ccc(Cl)cc1N(C)C(=O)C(=O)Nc1ccc2nc3n(c(=O)c2c1)CCCCC3 | 822 s
O=C(O)c1cn(-c2cccc(F)c2)nn1 | 652 s
COc1ccc(Cl)cc1NS(=O)(=O)c1cc(-c2cc(C(F)(F)F)on2)sc1C | 1220 s
CCOC(=O)c1cc([N+](=O)[O-])sc1NC(=O)CC | 915 s
NCCC1CCN(C(=O)Nc2ccc(F)cc2F)CC1 | 585 s
Cc1cc(C)c2c(N3CCCC3)nc(C(=O)NCc3cccs3)nc2n1 | 643 s
COc1cccc(N2CCN(CC(=O)N3CCC(C(N)=O)CC3)CC2)c1 | 582 s
O=C(O)c1cn(-c2ccc(F)c(F)c2)nn1 | 664 s
COc1cccc(-n2nnc(-c3nc(-c4ccccc4OC)cs3)c2N)c1 | 1120 s
COC(=O)c1c(C)[nH]c(C(=O)N2CCCC(C(=O)NCc3ccc4c(c3)OCO4)C2)c1C (configuration not stated) | 720 s
Cc1oc(-c2ccc(Cl)cc2)nc1CN1CCCC(C(=O)NC2CCCCCC2)C1 (configuration not stated) | 810 s
Cc1noc(-c2ccc(-n3ncc(C(=O)N4CCCC4)c3C)nc2)n1 | 699 s

Next, values leading:

RP-LC retention time | SMILES
818 s | O=C(NCCC1CCN(C(=O)Nc2cc(F)ccc2F)CC1)c1cccs1
721 s | O=C(NC1CCN(c2cc(-c3ccc(F)cc3)[nH]n2)C1)c1ccccc1Cl (configuration not stated)
862 s | O=C(Cc1ccccc1Br)NCC(=O)N1CCCc2ccccc21
774 s | O=C(NC(c1ccccc1)c1nnc(N2CCCCC2)o1)c1ccco1 (configuration not stated)
958 s | O=C(NCc1ccccc1F)C1CCCN(c2nc3ccsc3c(=O)n2Cc2ccc(F)cc2)C1 (configuration not stated)
783 s | Cc1ccc2c(=O)c(C(=O)N3CCC(C)CC3)cn(CC(=O)Nc3ccccc3)c2n1
750 s | Cc1nc2cc(N3CC(C(=O)NCc4ccc(F)c(Cl)c4)CC3=O)ccc2o1 (configuration not stated)
688 s | O=C(Cc1ccc(F)cc1)Nc1ccc2cn[nH]c2c1
648 s | O=C(Cn1ncc2c(N3CCN(c4ccccn4)CC3)ncnc21)Nc1cccc(Br)c1
745 s | O=C(NCC(O)c1cccc2ccccc12)Nc1c(F)cccc1F (configuration not stated)
572 s | COCCN1C(=O)[C@H]2CN(Cc3ccccc3)C[C@H]2C1=O
996 s | CCOc1ccc(-c2csc(C)n2)cc1S(=O)(=O)NCc1ccccc1
918 s | COc1ccc2cc(C(=O)N3CCCC(c4nnc(-c5ccccc5F)s4)C3)[nH]c2c1 (configuration not stated)
602 s | CCn1c(CCNC(=O)c2ccccc2F)nc2cccnc21
1030 s | CCCn1c(=O)c2cc(C(=O)Nc3ccccc3)nn2c2ccccc21
712 s | O=C(Nc1nnc(C2CC(=O)N(c3ccc(F)cc3)C2)o1)c1ccccc1Cl (configuration not stated)
1180 s | CCn1cc(-c2nc(C(=O)Nc3ccccc3OC)cs2)c2cccnc21
745 s | O=c1n(Cc2ccccc2F)nc2c(S(=O)(=O)N3CCOCC3)cccn12
617 s | O=C(Nc1nnc(-c2cccs2)o1)c1cccc(N2C(=O)CCC2=O)c1
